We go through 35 compounds from a melting point compilation (Tetko et al.; mined from patent text by program, amines drawn as free bases though some values may be those of a salt).

Molecules are shown by their SMILES.

As usually defined, the melting point is the temperature, or range, at which the solid turns liquid. `CNC(=O)c1[nH]c(C(C)(C)C)cc1NC(=O)Nc1ccc(C)cc1`: the melting point lay within 164 to 166 °C. In the case of `Cc1ccccc1NC(=O)c1ccccc1[Si](C)(C)C` it was 117 to 119 °C. With `Oc1ccc(-c2nc(-c3ccccc3)nc(-c3ccc(O)cc3O)n2)c(O)c1`, the melting point was in the range of 250 to 252 °C. `O=C(N[C@H]1C[C@H](C(=O)O)Nc2cc(Cl)cc(Cl)c21)C1CCCCC1` (relative stereo) had a melting point of 190 to 195 °C. In the case of `COc1ccc(OC2SCC(O)C(O)C2O)cn1` (stereo not given) it was 159 to 161 °C; in that of `CC(C)C(=O)c1ccc(N2CCN(C)CC2)cc1`, 74 to 76 °C; in that of `Cc1ncc(CNC(=O)c2sc(N3CCN(CC4CC4)C3=O)nc2C)s1`, 165 to 167 °C.

`CC1NC(=O)NN=C1c1ccc(S(N)(=O)=O)cc1` (stereo not given) came in with a melting point of 259 to 264 °C.

As to `Cc1ccc(-c2cc(F)c(F)cc2-c2ccc(S(C)(=O)=O)cc2)cc1Cl`, the melting point lay in the range of 138 to 139 °C.

In the case of `COc1c(C)cccc1Oc1ccccc1`, the melting point fell in the range of 52 to 53 °C.

Regarding `CCn1nc(C)c2c(O)c(C(=O)O)cnc21`, the melting point lay in the range of 212 to 213 °C.

As for `O=C(NC(c1ccccc1)c1ccccc1)N1CCC(C(=O)O)(c2ccccc2)CC1`, the melting point worked out at 208 °C. In the case of `COCCSNS(=O)(=O)c1ccccc1` it was 119 to 121 °C. The same measure for `COc1ccc(N(C)C(=O)CN2C(=O)c3ccccc3C2=O)c(OC)c1COc1cccc2ccc(C)nc12`: 184 to 185 °C. In turn, `Cc1cc(Oc2c(Cl)cc(C(F)(F)F)cc2Cl)nn1C(=O)NCCBr` yielded a melting point of 106 to 107 °C.

Compound `COc1ccc2cc(-c3ccc(S(C)=O)cc3)ccc2n1` (stereo not given) registered a melting point of 164 to 166 °C. In the case of `CC(=O)Cc1ccc(SCCCBr)cc1` it was 40 to 41 °C.

As for `CN1CCN(C(=O)/C=C/c2occc(=O)c2OCC(=O)OC(C)(C)C)CC1`, the melting point is 124 to 125 °C.

In turn, `CC(=O)Nc1cccc2c1C(=O)c1c-2n[nH]c1-c1ccc(N2CCOCC2)cc1` registered a melting point of over 300 °C. The same measure for `CCOC(=O)C1=C(N)NC(C)=C(C(=O)O)C1c1ccccc1-c1ccccc1` (stereo not given): 182 °C; for `O=C(c1c(F)cccc1F)n1c(-c2c(F)cccc2F)nc2ccccc21`: 145 °C; for `COC(=O)C(C)OC(=O)Cc1cc(Oc2ccc(C(F)(F)F)cc2Cl)ccc1[N+](=O)[O-]` (stereo not given): 72.1 to 72.9 °C. The same measure for `Cc1cc(C)c(=O)n(C(C(=O)O)c2ccc3c(c2)OCO3)n1` (stereo not given): 165 °C; for `CCN(CCc1ccc(NS(C)(=O)=O)cc1)CCc1ccc(NS(C)(=O)=O)cc1`: under 60 °C. In turn, `CC1=C(C(=O)OC(C)C)C(c2cccc([N+](=O)[O-])c2)n2c(cc(=O)n2C(=O)OC(C)C)N1` (stereo not given) yielded a melting point of 162 to 164 °C. Compound `CCc1[nH]n(C2CCCC2)c2nc(Cc3cccs3)nc(=O)c1-2` yielded a melting point of 173 to 174 °C. In the case of `CC(C)n1c(S(=O)(=O)c2ccc(OCc3ccccc3)cc2)nc2ccccc21` it was 94 to 96 °C; in that of `COc1ccccc1NS(=O)(=O)c1cccc([N+](=O)[O-])c1`, 130 to 132 °C; in that of `Nc1ccc(F)c(Br)c1F`, 77 to 78 °C. The same measure for `CC(C)(C)N1CCc2c(C(=O)O)nc3c(C#N)cnn3c21`: 230 to 232 °C; for `O=C(O)c1cc(Cl)ccc1C(O)=NCc1ccccc1`: 117 to 119 °C; for `CCOC(=O)C1COc2cc(-c3ccccc3)ccc2O1` (stereo not given): 103 to 105 °C. As for `O=c1[nH]c2ccc(Cl)cc2n1CCO`, the melting point came out at 160 °C.

Take `COc1ccc(C2=NN(CCCCBr)C(=O)[C@H]3CC=CC[C@@H]23)cc1Cl` (relative stereo): the melting point lay in the range of 109 to 111 °C. On to `CC(C)Oc1ccc(-c2nn(C(C)c3oc4ccccc4c(=O)c3-c3cccc(F)c3)c3ncnc(N)c23)cc1Cl` (stereo not given), for which the melting point lay in the range of 198 to 200 °C.
